Earlier results in US8613910B2, “Flavonoids as synergists for enhancing the action of self-tanning substances” (Merck Patent GmbH, priority 2005, dated 2013).

Conditions: amongst the hydroxyflavone structures investigated, entire pH range

For `O=c1c(O)c(-c2ccc(O)c(O)c2)oc2cc(O)cc(O)c12` [quercetin, 3,3′,4′,5,7-pentahydroxyflavone], which antioxidant action is on record?
Its antioxidant action is “greatest activity”.
